Test [1] deals with murine aortic rings. Nature of the test: Aortic ring matrigel assay (ex vivo). It counts as cell-based, mouse. Particulars: netrin-1 150 ng/ml, z-VAD-fmk 20 nM, BAF 20 nM, VEGF 13 ng/ml; day 4. How it is done:
Aortic ring assays were performed as described by Nicosia and colleagues (Nicosia and Ottinetti, 1990). Aortas were resected from Balb/C mice of 6 to 8 weeks of age, cleaned of periadventitial fat and connective tissues, rinsed twice in ECGM and cut in rings of 1 to 1.5 mm length. One hundred microliters of Growth factor reduced Matrigel (BD Biosciences) was added to each well of a 48-well tissue culture plate (Costar) and allowed to solidify for 30 min. at 37° C. Aortic rings were placed on the matrix layer, embedded in 100 μl of Matrigel, and allowed to recover in complete growth medium (ECGM, Promocell) for 24 hours. They were then treated or not with netrin-1 (150 ng/ml), z-VAD-fmk (Tebu; 20 nM), BAF (Sigma; 20 nM) or VEGF (Sigma; 13 ng/ml) and photographed with a phase contrast microscope on day 4. Microvessels outgrowth total length was calculated using AxioVision Release 4.6 software.

For test [2], the system named is chick chorioallantoic membrane. Nature of the test: Chick chorioallantoic membrane (CAM) assay. It is filed as in vivo. Particulars: 8-day-old chick embryos, 3 days; netrin-1 150 ng/ml, z-VAD-fmk 20 nM, BAF 20 nM; p<0.02. How it is done: Chick chorioallantoic membrane assay (CAM) assay was performed as already described. White Leghorn eggs were incubated at 37° C. in a humidified atmosphere. After 72 hours of incubation, 3 ml albumen was removed and a square window was opened into the shell. The opening was closed with cellotape until day 8. Netrin-1 (150 ng/ml), z-VAD-fmk (Tebu; 20 nM), BAF (Sigma; 20 nM), or VEGF (Sigma) were then diluted in PBS and mixed with an equal volume of autoclaved 1% methylcellulose solution. Controls were prepared with vehicles only. Each sample solution (10 μl) was dropped on Parafilm and dried up. The methylcellulose disks were stripped off from the Parafilm and placed on a CAM of the 8-day-old chick embryos. After 3 days, CAMs were photographed and the angiogenic response was evaluated by measuring the number of secondary ectopic vessels sprouts under the methylcellulose disks using AxioVision Release 4.6 software. UNC5B silencing in CAM was achieved by injection of specific siRNA designed by Sigma-Proligo in CAM blood circulation at E.5, E.7 and E.9. Analysis was performed at E.11.

The test system of test [3] is fli:egfp zebrafish embryos. The experiment in a line: Morpholino knockdown of fli:egfp zebrafish embryos, trunk vasculature phenotype. It counts as in vivo. How it is done:
Resource Center (University of Oregon) and maintained under standard breeding conditions at 28° C. (Lawson and Weinstein, 2002). Embryos were dechorionated using pronase enzymatic treatment and 6 ng of splice/translation blocking netrin-1, UNC5B and control morpholinos that were previously designed and characterized were injected alone or in combination in the high yolk of one to four-cells-stage embryos. A third splice-blocking morpholino specifically targeting netrin-1a was designed (GeneTools) and injected in embryos at the same dose. Finally, 3 ng of a translation-blocking morpholino targeting zebrafish ortholog of DAP kinase (GeneTools) was injected, leading to 35% decrease of DAP kinase mRNA expression in knocked-down embryos compared to control. Sequences of morpholinos are available upon request. Embryos were raised in E3 medium supplemented with 0.003% phenylthiourea to inhibit pigment formation. Rescue of phenotype induced by netrin-1a silencing was tested by adding 40 nM BAF in the E3 medium 4 hours after morpholinos injection. For TUNEL staining, embryos were fixed at 48 hpf in 4% PFA overnight at 4° C. They were then rinsed 10 minutes in PBS-Tween 0.1% (PBST) and progressively dehydrated in successive methanol baths (25, 50, 75 and 100%). […]

Test [4] has as its system zebrafish embryos. The experiment in a line: Apoptosis in zebrafish embryos (TUNEL staining, caspase-3 activity). Particulars: TUNEL immunostaining and caspase-3 activity; tsl-netrin-1a injected embryos. It counts as in vivo.
Protocol: Embryos were dechorionated using pronase enzymatic treatment and 6 ng of splice/translation blocking netrin-1, UNC5B and control morpholinos that were previously designed and characterized were injected alone or in combination in the high yolk of one to four-cells-stage embryos. A third splice-blocking morpholino specifically targeting netrin-1a was designed (GeneTools) and injected in embryos at the same dose. […] Embryos were raised in E3 medium supplemented with 0.003% phenylthiourea to inhibit pigment formation. Rescue of phenotype induced by netrin-1a silencing was tested by adding 40 nM BAF in the E3 medium 4 hours after morpholinos injection. For TUNEL staining, embryos were fixed at 48 hpf in 4% PFA overnight at 4° C. They were then rinsed 10 minutes in PBS-Tween 0.1% (PBST) and progressively dehydrated in successive methanol baths (25, 50, 75 and 100%). […] Caspase-3 activity assay was performed as described above on whole embryos at 24 h development.
Test [5] has as its system HUAEC. The experiment in a line: Cell death upon serum starvation, trypan blue exclusion. It counts as cell-based, human. Particulars: netrin 50 ng/ml, p<0.005. How it is done: (§1) Cell death assays were performed as described previously. Briefly, endothelial cells were seeded at 10 000 cells/cm2 in complete medium for 16 hours. Cell death was induced either by starvation in serum free medium (Endothelium Cell Basal Medium, Promocell) or by exposure to 50 μM etoposide. Netrin-1 was purchased from Axxora-Apotech. Cell death was scored by trypan blue exclusion assay as previously described. For detection of DNA fragmentation, treated cells cultured on coverslips were fixed 20 minutes in 4% paraformaldehyde (PFA) and Terminal deoxynucleodityl transferase mediated dUTP-biotin Nick End Labeling (TUNEL) was performed with 300 U/mL TUNEL enzyme (300 U/mL) and 6 μM biotinylated dUTP (Roche Diagnostics). Caspase-3 activity was measured using ApoAlert CPP32 kit from Clontech (USA) and by immunostaining on fixed cells using anti-active-caspase-3 antibody (Cell Signaling) as described in (Llambi et al., 2005; Tauszig-Delamasure et al., 2007). Toxilight assay was performed according to manufacturer's instructions (Lonza). For netrin-1 titration experiment, rat recombinant UNC5H2-Fc (R&D) was used at 1 μg/ml.

The test system of test [6] is HUVEC. The test is described as above. It is filed as cell-based, human. Particulars: netrin 50 ng/ml, p<0.005. How it is done:
as §1

The subject of test [7] is HUAEC. Nature of the test: Etoposide-induced cell death, Toxilight assay. It counts as cell-based, human. Particulars: overnight treatment with 50 μM etoposide; p<0.05. The protocol:
as §1

Test [8] deals with HUVEC. The experiment in a line: Etoposide-induced cell death, Toxilight assay. It is filed as cell-based, human. Particulars: overnight treatment with 50 μM etoposide; p<0.05. How it is done: as §1
Test [9] relates to HUVEC. Nature of the test: TUNEL staining of apoptosis. It counts as cell-based, human. Particulars: netrin 50 ng/ml. The protocol: as §1
The subject of test [10] is HUVEC. Nature of the test: Caspase-3 activity assay (ApoAlert CPP32 kit, active caspase-3 immunostaining). It counts as cell-based, human. Particulars: netrin 50 ng/ml, p<0.005. The protocol:
Human umbilical vein and artery cells (Promocell, passages<8) were cultured in endothelial cell growth medium (ECGM, Promocell) supplemented with 2% serum (kit, Promocell) until they reach 80% confluence. HUVEC were transfected using the AMAXA Nucleofector system, according to manufacturer's instructions. In brief, 500 000 cells were resuspended in 100 μl HUVEC Nucleofector solution and transfected with 1 μg siRNA or 1.5 μg plasmid DNA and 0.5 μg GFP-encoding control plasmid. UNC5A, UNC5B and scramble siRNAs were designed by Sigma-Proligo. Plasmids encoding mutant DAP kinase (DAP kinase ΔCam and DAP kinase DD) were described previously (Llambi et al., 2005). After transfection, cells were cultured in 1% growth medium and collected after 24 hours.
Cell death assays were performed as described previously. Briefly, endothelial cells were seeded at 10 000 cells/cm2 in complete medium for 16 hours. Cell death was induced either by starvation in serum free medium (Endothelium Cell Basal Medium, Promocell) or by exposure to 50 μM etoposide. Netrin-1 was purchased from Axxora-Apotech. Cell death was scored by trypan blue exclusion assay as previously described. […] Caspase-3 activity was measured using ApoAlert CPP32 kit from Clontech (USA) and by immunostaining on fixed cells using anti-active-caspase-3 antibody (Cell Signaling) as described in (Llambi et al., 2005; Tauszig-Delamasure et al., 2007). […]

The subject of test [11] is HUAEC. The test is described as above. It counts as cell-based, human. Particulars: netrin 50 ng/ml, p<0.005. How it is done:
as §1

The subject of test [12] is DAP kinase. The experiment in a line: DAP kinase phosphorylation, Western blot. It is filed as cell-based, human. Particulars: HUVEC; netrin-1 in serum free medium 24 hours. The protocol:
Endothelial cells seeded at 10 000 cells/cm^2 and treated or not with netrin-1 in serum free medium (Endothelium Cell Basal Medium, Promocell) for 24 hours were collected and lysed in 50 mM HEPES pH 7.6, 125 mM NaCl, 5 mM EDTA and 0.1% NP-40 buffer in the presence of protease inhibitors. Protein extracts were immunoblotted with anti-DAP-kinase and anti-phospho-DAP kinase antibodies (Sigma). For immunofluorescence analysis, cells were seeded on LabTek chamber slides and fixed 15 minutes in 4% PFA.
For orientation: A western blot detects proteins with antibodies after separation by electrophoresis.

Peptide text beside a SMILES is read from it. * marks the point of attachment. Cbz = O=C(OCc1ccccc1)*; CH2F = FC*

Consider `COC(=O)C[C@H](NC(=O)OC(C)(C)C)C(=O)CF` [BAF], for which, in test [1], the “capillary sprouting / microvessels formation from aortic rings” value is “induced neocapillary tube formation”. Also, in test [2], the “neovessel formation in vicinity of methylcellulose discs” value (“neovessel formation in vicinity” for short) is listed as “significant increase in neovessel formation”. In addition, the “embryos with PAV formation” value in test [3] (spl-netrin-1a injected embryos treated with 40 nM BAF, n=54, 42.7% in untreated, p<0.0001) stood at 92.6%. For the same compound, the “embryos displaying at least partial ISVs” value in test [3] (tsl-netrin-1a knock-down embryos treated with BAF, 23.0% in controls, p<0.001) was 54.5%. The “increase of cell death after netrin-1a silencing” value in [4] was “rescued the increase of cell death”.
Regarding VEGF, the “capillary sprouting / microvessels formation from aortic rings” value in test [1] is “enhanced capillary sprouting”. Also, the “neovessel formation in vicinity” value in [2] was “significant increase in neovessel formation”.
In the case of netrin-1, the HUAEC cell death entry in test [5] is given as “inhibited”. The HUVEC cell death entry in test [6] is given as “inhibited”. Further, the “HUAEC cell death upon etoposide” value in test [7] was “inhibits”. Besides, the “HUVEC cell death upon etoposide” value in test [8] is “inhibits”. For the same compound, in test [9], the “number of TUNEL positive cells” value was “decreased number of TUNEL positive cells”. The “reduced caspase-3 activity” value in test [10] is recorded as “up to 30%”; in [11], ≤ 40%. The DAP kinase phosphorylation result in [12] is “increase in DAP kinase phosphorylation”. Moreover, the “capillary sprouting / microvessels formation from aortic rings” value in test [1] is given as “enhanced capillary sprouting”. Besides, in [2], the “neovessel formation in vicinity” value is on record as “significant increase in neovessel formation”.
As to `COC(=O)C[C@H](NC(=O)[C@H](C)NC(=O)[C@@H](NC(=O)OCc1ccccc1)C(C)C)C(=O)CF` [z-VAD-fmk, reference compound] (Cbz-Val-Ala-Asp(OMe)-CH2F), the “capillary sprouting / microvessels formation from aortic rings” value in test [1] is “induced neocapillary tube formation”. Also, the “neovessel formation in vicinity” value in [2] was “significant increase in neovessel formation”.

(Values after US20120015364A1, “METHOD FOR THE SELECTION OF ENDOTHELIAL CELLS DEATH INDUCERS VIA NETRIN-1 AND ITS APPLICATIONS” (CENTRE NATIONAL DE LA RECHERCHE SCIENTIFIQUE (CNRS), priority 2009, published 2012).)
